# Experimental data reported in patent US20080081798A1, “Pharmaceutical combinations for the treatment of head-aches and migraine attacks as well as blisters and packs that contain them” (priority 2006, published 2008).
# System: patients suffering from migraine (moderate or severe migraine attacks)
# Assay: Double-blind, randomized, cross-over, placebo-controlled study of rizatriptan and trimebutine for treating migraine
# Format: in vivo, human
# Method: Thirty-two patients (24 women and 8 men, aged between 21 and 61, average=39.7) suffering from migraine according to the criteria of the International Headache Association were randomized to treat 2 consecutive moderate or severe attacks with a tablet of 10 mg of rizatriptan and a capsule of 200 mg of trimebutine and 2 attacks with the same amount of triptan and placebo, and vice-versa. The severity of the attacks, as well as the presence of nauseas and photophobia at the moment of ingesting the drug after 1, 2 and 4 hours were collected.
smiles,measurement,setting,value
CN(C)CCc1c[nH]c2ccc(Cn3cncn3)cc12 [rizatriptan],without pain after 1 hour (share of the 38 attacks without pain),"10 mg rizatriptan tablet with 200 mg trimebutine capsule or placebo, 1 hour, of the 38 attacks, p<0.001",21.1%
same,without pain after 2 hours (share of the 67 attacks),"10 mg rizatriptan tablet with 200 mg trimebutine capsule or placebo, 2 hours, of the 67 attacks, p<0.0001",29.9%
same,adverse events present (number of attacks treated),64 attacks treated with each drug regimen,18 attacks
same,free from nausea after 1 hour,"1 hour, p<0.001",23.7%
same,free from photophobia after 1 hour,"1 hour, p<0.001",26.7%
